Assay results reported in ChEMBL document CHEMBL3991601, “The target landscape of clinical kinase drugs” (Science, 2017).
Activity calls are given as the source filed them. Rule as the data show it, for most assays here: actives have a measured Kd and inactives only a lower limit.

Columns and labels:
[1] = molecular target: Cyclin-dependent kinase 13 (Homo sapiens, UniProt Q14004)
[2] = molecular target: Cyclin-dependent kinase 6 (Homo sapiens, UniProt Q00534)
[3] = molecular target: Casein kinase I isoform epsilon (Homo sapiens, UniProt P49674)
[4] = molecular target: ATP-dependent RNA helicase DDX3X (Homo sapiens, UniProt O00571)
[5] = molecular target: T1, Mitogen-activated protein kinase kinase kinase 5 (Homo sapiens, UniProt Q99683)
T1 sequence (Q99683 whole entry): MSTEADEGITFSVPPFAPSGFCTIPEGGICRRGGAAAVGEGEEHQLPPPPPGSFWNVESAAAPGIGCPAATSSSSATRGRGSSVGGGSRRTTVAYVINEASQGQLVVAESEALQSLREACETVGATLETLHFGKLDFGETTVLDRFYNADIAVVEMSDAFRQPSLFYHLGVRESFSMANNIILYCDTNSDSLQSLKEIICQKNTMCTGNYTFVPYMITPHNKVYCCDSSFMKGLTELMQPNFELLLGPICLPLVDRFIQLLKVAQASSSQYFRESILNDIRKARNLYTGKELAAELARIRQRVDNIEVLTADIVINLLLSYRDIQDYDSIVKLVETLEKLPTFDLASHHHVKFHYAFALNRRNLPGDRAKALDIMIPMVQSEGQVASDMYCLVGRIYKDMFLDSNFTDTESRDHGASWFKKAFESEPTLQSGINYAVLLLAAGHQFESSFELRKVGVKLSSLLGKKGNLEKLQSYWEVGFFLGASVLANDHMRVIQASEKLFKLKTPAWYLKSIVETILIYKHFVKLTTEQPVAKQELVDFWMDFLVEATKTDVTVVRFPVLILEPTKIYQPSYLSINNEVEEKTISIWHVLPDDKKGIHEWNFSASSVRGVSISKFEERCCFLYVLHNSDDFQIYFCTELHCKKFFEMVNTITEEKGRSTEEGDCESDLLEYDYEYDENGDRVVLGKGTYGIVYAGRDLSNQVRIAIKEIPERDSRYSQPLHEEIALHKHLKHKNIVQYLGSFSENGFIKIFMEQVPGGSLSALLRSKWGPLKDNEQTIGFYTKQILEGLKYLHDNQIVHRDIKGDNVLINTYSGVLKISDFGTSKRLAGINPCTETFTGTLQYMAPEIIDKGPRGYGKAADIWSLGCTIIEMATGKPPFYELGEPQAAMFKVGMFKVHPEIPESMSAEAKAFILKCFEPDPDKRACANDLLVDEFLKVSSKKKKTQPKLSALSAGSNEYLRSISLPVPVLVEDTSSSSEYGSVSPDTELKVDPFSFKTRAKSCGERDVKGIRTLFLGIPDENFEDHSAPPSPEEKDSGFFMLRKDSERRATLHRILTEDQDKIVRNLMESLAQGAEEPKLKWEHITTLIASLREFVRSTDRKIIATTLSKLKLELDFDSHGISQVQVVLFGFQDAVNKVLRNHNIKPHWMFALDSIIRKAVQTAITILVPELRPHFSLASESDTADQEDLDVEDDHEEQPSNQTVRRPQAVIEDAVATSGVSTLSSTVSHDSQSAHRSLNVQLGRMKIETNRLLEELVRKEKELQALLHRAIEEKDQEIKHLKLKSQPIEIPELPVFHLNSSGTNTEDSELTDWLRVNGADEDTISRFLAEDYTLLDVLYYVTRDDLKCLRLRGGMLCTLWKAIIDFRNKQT

[6] = molecular target: T2, Ribosyldihydronicotinamide dehydrogenase [quinone] (Homo sapiens, UniProt P16083)
T2 sequence (P16083 whole entry): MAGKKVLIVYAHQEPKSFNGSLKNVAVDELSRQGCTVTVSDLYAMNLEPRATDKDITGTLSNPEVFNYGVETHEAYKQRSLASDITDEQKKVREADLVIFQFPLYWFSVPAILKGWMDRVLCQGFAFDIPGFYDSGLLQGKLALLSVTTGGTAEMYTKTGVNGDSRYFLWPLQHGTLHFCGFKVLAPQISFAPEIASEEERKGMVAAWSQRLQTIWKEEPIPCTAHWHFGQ

[7] = molecular target: Protein kinase C delta type (Homo sapiens, UniProt Q05655)
[8] = molecular target: Protein-tyrosine kinase 6 (Homo sapiens, UniProt Q13882)
[9] = molecular target: T3, Serine/threonine-protein kinase TAO1 (Homo sapiens, UniProt Q7L7X3)
T3 sequence (Q7L7X3 whole entry): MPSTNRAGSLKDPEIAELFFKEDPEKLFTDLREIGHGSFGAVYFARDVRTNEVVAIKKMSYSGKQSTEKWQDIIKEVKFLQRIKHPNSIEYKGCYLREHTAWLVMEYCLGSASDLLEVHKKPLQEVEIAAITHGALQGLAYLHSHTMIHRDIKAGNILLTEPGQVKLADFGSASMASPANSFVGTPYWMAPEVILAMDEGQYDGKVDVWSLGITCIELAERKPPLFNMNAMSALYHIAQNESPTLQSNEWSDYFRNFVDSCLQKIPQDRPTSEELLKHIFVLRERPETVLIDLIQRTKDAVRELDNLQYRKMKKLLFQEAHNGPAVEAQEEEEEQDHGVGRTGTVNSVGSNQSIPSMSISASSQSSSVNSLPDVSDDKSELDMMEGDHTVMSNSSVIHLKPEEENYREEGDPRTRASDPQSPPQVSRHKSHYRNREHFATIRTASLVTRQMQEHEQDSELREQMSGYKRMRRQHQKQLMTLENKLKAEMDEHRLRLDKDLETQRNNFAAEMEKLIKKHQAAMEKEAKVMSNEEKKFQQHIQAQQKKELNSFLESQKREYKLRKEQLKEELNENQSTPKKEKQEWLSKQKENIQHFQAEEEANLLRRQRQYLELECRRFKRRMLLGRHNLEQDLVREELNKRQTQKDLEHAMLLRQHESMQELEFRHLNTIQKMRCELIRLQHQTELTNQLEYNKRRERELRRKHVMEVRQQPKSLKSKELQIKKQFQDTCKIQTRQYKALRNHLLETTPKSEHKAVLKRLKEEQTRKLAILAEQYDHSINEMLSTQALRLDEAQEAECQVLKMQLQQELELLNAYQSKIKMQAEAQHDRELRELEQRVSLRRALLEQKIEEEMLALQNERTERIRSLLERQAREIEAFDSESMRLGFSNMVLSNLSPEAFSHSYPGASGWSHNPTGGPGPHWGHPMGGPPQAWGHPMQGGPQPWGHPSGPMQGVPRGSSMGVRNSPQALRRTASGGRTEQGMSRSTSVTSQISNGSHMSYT
Also: in the data inactive means no Kd found up to 30 µM.

Cyclin-dependent kinase 6, sequence (Q00534 whole entry, canonical isoform): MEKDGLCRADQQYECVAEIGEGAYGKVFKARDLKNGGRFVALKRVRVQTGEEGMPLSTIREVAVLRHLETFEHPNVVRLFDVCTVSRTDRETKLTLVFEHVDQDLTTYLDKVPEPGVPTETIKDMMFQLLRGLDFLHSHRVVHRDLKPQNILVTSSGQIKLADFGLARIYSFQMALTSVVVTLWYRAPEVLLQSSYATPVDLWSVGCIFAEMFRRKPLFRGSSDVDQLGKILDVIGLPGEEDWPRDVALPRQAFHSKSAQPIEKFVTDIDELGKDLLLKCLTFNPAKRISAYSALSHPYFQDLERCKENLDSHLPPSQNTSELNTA
Protein-tyrosine kinase 6, sequence (Q13882 whole entry): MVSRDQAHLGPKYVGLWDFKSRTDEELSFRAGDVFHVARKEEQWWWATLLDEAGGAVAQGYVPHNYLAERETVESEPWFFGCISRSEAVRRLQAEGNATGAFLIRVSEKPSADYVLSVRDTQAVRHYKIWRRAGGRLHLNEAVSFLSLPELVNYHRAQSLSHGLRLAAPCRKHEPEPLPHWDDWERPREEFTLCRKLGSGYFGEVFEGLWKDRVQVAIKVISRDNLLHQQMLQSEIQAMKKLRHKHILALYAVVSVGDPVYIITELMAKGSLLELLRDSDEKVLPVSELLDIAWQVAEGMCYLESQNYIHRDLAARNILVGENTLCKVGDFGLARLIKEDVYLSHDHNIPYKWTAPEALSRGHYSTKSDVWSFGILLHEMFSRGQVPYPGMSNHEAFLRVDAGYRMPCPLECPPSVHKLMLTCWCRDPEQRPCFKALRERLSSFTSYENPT
Cyclin-dependent kinase 13, sequence (Q14004 whole entry): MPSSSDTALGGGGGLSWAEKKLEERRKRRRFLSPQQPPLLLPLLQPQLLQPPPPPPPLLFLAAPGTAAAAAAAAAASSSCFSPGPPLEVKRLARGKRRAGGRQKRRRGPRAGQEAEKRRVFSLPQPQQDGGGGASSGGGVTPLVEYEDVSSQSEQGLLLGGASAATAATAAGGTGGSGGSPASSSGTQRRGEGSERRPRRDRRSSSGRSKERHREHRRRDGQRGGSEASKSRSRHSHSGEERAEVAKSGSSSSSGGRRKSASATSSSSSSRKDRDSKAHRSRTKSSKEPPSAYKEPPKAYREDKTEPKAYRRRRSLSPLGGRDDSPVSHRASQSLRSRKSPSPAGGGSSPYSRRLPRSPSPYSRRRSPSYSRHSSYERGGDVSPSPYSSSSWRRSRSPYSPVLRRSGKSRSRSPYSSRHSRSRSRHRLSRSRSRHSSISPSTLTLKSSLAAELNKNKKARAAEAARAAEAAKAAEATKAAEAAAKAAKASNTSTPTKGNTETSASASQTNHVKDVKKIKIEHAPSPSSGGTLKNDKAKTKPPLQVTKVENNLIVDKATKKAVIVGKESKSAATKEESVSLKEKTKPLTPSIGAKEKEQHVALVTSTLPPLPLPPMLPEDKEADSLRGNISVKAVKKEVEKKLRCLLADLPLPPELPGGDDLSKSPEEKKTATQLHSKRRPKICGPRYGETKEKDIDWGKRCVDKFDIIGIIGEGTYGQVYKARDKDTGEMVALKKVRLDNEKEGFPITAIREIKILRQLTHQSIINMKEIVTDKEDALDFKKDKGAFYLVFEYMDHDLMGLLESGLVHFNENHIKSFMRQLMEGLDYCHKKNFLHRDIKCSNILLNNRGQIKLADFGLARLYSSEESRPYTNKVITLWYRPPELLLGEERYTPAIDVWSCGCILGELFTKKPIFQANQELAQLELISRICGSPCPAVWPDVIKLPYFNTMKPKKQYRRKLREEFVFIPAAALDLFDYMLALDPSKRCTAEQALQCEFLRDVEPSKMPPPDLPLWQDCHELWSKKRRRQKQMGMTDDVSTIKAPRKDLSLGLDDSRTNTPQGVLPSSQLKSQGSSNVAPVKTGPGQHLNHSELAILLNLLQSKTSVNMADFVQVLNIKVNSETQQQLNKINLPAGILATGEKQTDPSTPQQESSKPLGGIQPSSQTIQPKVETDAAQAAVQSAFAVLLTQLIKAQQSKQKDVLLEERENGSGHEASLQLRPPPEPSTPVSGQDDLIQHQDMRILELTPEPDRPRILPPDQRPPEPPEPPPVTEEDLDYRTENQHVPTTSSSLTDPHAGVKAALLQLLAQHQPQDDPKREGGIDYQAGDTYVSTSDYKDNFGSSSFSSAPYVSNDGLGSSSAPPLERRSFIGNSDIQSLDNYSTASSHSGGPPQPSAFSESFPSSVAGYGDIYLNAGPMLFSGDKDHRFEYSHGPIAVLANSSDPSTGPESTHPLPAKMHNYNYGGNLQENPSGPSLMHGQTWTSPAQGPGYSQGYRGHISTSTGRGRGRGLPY
ATP-dependent RNA helicase DDX3X, sequence (O00571 whole entry): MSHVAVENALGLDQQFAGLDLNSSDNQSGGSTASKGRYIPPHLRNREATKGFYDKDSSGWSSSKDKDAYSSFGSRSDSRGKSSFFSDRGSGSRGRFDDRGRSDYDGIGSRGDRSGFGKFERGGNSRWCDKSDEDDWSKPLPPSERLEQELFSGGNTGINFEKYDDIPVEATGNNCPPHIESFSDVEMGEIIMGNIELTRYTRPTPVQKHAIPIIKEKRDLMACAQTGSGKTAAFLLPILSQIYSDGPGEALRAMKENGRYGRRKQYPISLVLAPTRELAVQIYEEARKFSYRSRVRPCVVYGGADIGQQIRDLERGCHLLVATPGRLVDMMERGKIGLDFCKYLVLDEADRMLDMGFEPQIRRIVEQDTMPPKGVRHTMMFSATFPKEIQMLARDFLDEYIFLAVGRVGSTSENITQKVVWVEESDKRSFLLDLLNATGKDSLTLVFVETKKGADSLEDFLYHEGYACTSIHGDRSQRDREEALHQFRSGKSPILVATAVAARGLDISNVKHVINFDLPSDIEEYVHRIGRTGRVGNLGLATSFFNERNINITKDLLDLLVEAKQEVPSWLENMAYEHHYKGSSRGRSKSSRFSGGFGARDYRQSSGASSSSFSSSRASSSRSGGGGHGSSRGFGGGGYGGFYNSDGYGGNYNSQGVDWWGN
Protein kinase C delta type, sequence (Q05655 whole entry): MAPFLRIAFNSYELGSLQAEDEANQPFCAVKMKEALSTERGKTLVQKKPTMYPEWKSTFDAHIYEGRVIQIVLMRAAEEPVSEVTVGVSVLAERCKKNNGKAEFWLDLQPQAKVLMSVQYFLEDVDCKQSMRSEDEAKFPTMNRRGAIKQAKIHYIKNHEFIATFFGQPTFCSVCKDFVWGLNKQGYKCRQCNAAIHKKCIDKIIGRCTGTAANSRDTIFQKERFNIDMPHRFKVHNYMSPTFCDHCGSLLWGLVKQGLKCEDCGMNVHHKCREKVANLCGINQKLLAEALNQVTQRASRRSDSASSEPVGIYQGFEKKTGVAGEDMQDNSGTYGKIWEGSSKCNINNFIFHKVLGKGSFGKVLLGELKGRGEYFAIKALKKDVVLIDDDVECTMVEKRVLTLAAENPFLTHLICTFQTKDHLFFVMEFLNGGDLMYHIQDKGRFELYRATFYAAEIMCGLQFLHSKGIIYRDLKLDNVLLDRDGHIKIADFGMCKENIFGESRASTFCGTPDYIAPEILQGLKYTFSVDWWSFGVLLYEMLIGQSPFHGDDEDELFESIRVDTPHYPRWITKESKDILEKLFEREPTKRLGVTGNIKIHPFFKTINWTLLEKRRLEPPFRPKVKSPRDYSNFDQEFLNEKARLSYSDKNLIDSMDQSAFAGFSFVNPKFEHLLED
Casein kinase I isoform epsilon, sequence (P49674 whole entry, canonical isoform): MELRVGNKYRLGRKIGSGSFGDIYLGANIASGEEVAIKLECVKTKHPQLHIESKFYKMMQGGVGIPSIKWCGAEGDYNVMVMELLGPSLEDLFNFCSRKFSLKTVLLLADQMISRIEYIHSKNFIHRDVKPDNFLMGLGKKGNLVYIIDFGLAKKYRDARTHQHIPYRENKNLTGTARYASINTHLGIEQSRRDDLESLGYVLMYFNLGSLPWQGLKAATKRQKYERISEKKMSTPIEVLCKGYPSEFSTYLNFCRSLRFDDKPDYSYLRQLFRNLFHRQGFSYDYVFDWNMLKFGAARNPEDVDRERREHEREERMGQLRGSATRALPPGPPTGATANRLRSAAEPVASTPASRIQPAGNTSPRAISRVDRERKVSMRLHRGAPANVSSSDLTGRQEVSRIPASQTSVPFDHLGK

Kd [1]	Kd [2]	Kd [3]	Kd [4]	Kd [5]	Kd [6]	Kd [7]	Kd [8]	Kd [9]	SMILES
> 30 µM (inactive)	> 30 µM (inactive)	> 30 µM (inactive)	> 30 µM (inactive)	> 30 µM (inactive)	> 30 µM (inactive)	> 30 µM (inactive)	> 30 µM (inactive)	> 30 µM (inactive)	O=C(NC[C@H](O)CO)c1ccncc1Nc1ccc(I)cc1F [PIMASERTIB]
> 30 µM (inactive)	> 30 µM (inactive)	> 30 µM (inactive)	> 30 µM (inactive)	> 30 µM (inactive)	> 30 µM (inactive)	> 30 µM (inactive)	> 30 µM (inactive)	> 30 µM (inactive)	C=CC(=O)Nc1cccc(Nc2nc(Nc3ccc(N4CCN(C(C)=O)CC4)cc3OC)ncc2C(F)(F)F)c1 [ROCILETINIB]
> 30 µM (inactive)	> 30 µM (inactive)	> 30 µM (inactive)	> 30 µM (inactive)	> 30 µM (inactive)	> 30 µM (inactive)	> 30 µM (inactive)	> 30 µM (inactive)	2.08 µM (active)	O=C(O)c1ccc2c(c1)nc(Nc1cccc(Cl)c1)c1ccncc12 [SILMITASERTIB]
> 30 µM (inactive)	> 30 µM (inactive)	> 30 µM (inactive)	> 30 µM (inactive)	> 30 µM (inactive)	> 30 µM (inactive)	> 30 µM (inactive)	> 30 µM (inactive)	> 30 µM (inactive)	CC(C)(O)CC(=O)NCCn1ccc2ncnc(Nc3ccc(Oc4cccc(C(F)(F)F)c4)c(Cl)c3)c21 [TAK-285]
> 30 µM (inactive)	> 30 µM (inactive)	> 30 µM (inactive)	> 30 µM (inactive)	> 30 µM (inactive)	> 30 µM (inactive)	> 30 µM (inactive)	> 30 µM (inactive)	> 30 µM (inactive)	Cc1cc(C(=O)Nc2cc(Oc3ccc4nc(NC(=O)C5CC5)cn4n3)ccc2C)n(C)n1 [TAK-593]
> 30 µM (inactive)	> 30 µM (inactive)	> 30 µM (inactive)	> 30 µM (inactive)	> 30 µM (inactive)	> 30 µM (inactive)	> 30 µM (inactive)	> 30 µM (inactive)	> 30 µM (inactive)	Cn1c(=O)c(F)c(Nc2ccc(I)cc2F)c2c(=O)n(C[C@@H](O)CO)cnc21 [TAK-733]
> 30 µM (inactive)	> 30 µM (inactive)	> 30 µM (inactive)	> 30 µM (inactive)	> 30 µM (inactive)	> 30 µM (inactive)	> 30 µM (inactive)	> 30 µM (inactive)	> 30 µM (inactive)	O[C@H]1CC[C@H](Nc2ncc3nc(Nc4c(F)cc(F)cc4F)n([C@H]4CCOC4)c3n2)CC1 [TANZISERTIB]
> 30 µM (inactive)	> 30 µM (inactive)	> 30 µM (inactive)	> 30 µM (inactive)	> 30 µM (inactive)	> 30 µM (inactive)	> 30 µM (inactive)	> 30 µM (inactive)	> 30 µM (inactive)	CNC(=O)c1cc(COc2nnc(Nc3ccc(Cl)cc3)c3ccoc23)ccn1 [TELATINIB]
> 30 µM (inactive)	> 30 µM (inactive)	> 30 µM (inactive)	> 30 µM (inactive)	> 30 µM (inactive)	> 30 µM (inactive)	> 30 µM (inactive)	> 30 µM (inactive)	> 30 µM (inactive)	Cc1cc(-c2cc(OC(=O)c3ccccc3)ccc2Cl)cc2nnc(Nc3ccc(OCCN4CCCC4)cc3)nc12 [TG100-801]
> 30 µM (inactive)	> 30 µM (inactive)	> 30 µM (inactive)	> 30 µM (inactive)	> 30 µM (inactive)	> 30 µM (inactive)	> 30 µM (inactive)	> 30 µM (inactive)	> 30 µM (inactive)	C[C@@H]1COC(Nc2ccc3ncnc(Nc4ccc(OCc5nccs5)c(Cl)c4)c3c2)=N1 [VARLITINIB]
> 30 µM (inactive)	> 30 µM (inactive)	> 30 µM (inactive)	> 30 µM (inactive)	> 30 µM (inactive)	> 30 µM (inactive)	> 30 µM (inactive)	> 30 µM (inactive)	> 30 µM (inactive)	CNC(=O)c1cccc(-c2ccc3c(N4CCOC[C@@H]4C)nc(N4CCOC[C@@H]4C)nc3n2)c1 [VISTUSERTIB]

SMILES	Kd [1]	Kd [2]	Kd [3]	Kd [4]	Kd [5]	Kd [6]	Kd [7]	Kd [8]	Kd [9]
CC(C)CC(=O)Nc1[nH]nc2c1CN(C(=O)C1CCN(C)CC1)C2(C)C [PHA-793887]	3.58 µM (active)	> 30 µM (inactive)	> 30 µM (inactive)	> 30 µM (inactive)	> 30 µM (inactive)	> 30 µM (inactive)	> 30 µM (inactive)	> 30 µM (inactive)	> 30 µM (inactive)
COc1cc(F)c(F)c(Nc2ccc(I)cc2F)c1NS(=O)(=O)C1(C[C@H](O)CO)CC1 [REFAMETINIB]	> 30 µM (inactive)	> 30 µM (inactive)	> 30 µM (inactive)	> 30 µM (inactive)	> 30 µM (inactive)	> 30 µM (inactive)	> 30 µM (inactive)	> 30 µM (inactive)	> 30 µM (inactive)
COCCN1CCN(Cc2ccc(-c3n[nH]c4c3C(=O)c3c(NC(=O)NN5CCOCC5)cccc3-4)cc2)CC1 [RGB-286638]	1.01 µM (active)	> 30 µM (inactive)	> 30 µM (inactive)	> 30 µM (inactive)	> 30 µM (inactive)	> 30 µM (inactive)	> 30 µM (inactive)	> 30 µM (inactive)	> 30 µM (inactive)
C=CCN(/C=C1/C(=O)O[C@H](COC)[C@@]2(C)C1=C(O)C(=O)C1=C2[C@H](OC(C)=O)C[C@]2(C)C(=O)CC[C@@H]12)CC=C [SONOLISIB]	> 30 µM (inactive)	> 30 µM (inactive)	> 30 µM (inactive)	> 30 µM (inactive)	> 30 µM (inactive)	> 30 µM (inactive)	> 30 µM (inactive)	> 30 µM (inactive)	> 30 µM (inactive)
